For orientation: IC50 means the concentration at which inhibition is half-maximal.

One test concerns the target T1, TRPC3 (Homo sapiens, UniProt Q13507).
T1 construct: expressed in transfected cells; host or cells: HEK293 (inducible expression)
T1 sequence (Q13507 1-921): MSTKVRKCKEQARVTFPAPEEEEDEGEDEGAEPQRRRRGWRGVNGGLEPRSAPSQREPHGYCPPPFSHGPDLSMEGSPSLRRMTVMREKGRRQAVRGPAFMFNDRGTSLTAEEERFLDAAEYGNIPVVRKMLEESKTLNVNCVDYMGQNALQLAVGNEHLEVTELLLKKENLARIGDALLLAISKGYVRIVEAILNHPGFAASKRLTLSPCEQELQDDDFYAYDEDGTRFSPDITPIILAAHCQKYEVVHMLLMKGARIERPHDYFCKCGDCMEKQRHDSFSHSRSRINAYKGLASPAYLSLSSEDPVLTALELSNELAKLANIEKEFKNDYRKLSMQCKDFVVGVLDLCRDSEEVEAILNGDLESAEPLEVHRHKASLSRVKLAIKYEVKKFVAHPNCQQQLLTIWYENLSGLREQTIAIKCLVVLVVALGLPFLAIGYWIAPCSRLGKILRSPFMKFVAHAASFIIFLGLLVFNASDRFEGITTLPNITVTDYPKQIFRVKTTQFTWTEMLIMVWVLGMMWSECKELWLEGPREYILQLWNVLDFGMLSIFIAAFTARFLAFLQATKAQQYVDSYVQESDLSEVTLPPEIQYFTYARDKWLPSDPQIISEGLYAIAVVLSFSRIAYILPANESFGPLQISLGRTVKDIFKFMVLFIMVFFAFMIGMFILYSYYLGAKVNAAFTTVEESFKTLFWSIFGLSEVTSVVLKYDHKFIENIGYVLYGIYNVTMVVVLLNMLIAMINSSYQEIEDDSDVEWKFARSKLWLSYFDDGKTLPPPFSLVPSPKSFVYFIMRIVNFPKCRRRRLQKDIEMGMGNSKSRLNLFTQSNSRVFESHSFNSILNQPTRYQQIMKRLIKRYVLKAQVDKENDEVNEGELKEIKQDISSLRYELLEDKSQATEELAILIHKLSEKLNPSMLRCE
Briefly: FLIPR Ca2+ influx measurement, OAG-activated TRPC3 HEK293 cells. The test is classed as cell-based. The conditions noted are these: 30 μM OAG. From the text: In general, cells are provided which express a TRPC channel. Such cells can be produced using genetic methods known to a person skilled in the art. After having induced the expression of the TRPC channel, cells are usually plated into e.g. microtiter plates and grown. Usually the cells grow at the bottom of multiwell plates and are fixed. Thereafter, the cells are generally washed and loaded with a dye in a suitable loading buffer, preferably with a fluorescent dye such as fluo4am. After having removed the loading buffer, the cells are incubated with the test compound or modulator, in particular with a biochemical or chemical test compound as described above, e.g. in the form of a chemical compound library. Ca^2+ measurements can be carried out using e.g. a Fluorescence Imaging Plate Reader (FLIPR). To stimulate Ca^2+ influx through the TRPC channel a channel activator such as OAG should generally be applied.
TRPC3 and TRPC6 were directly activated by application of oleoyl-2-acetyl-sn-glycerol (OAG), a membrane permeable diacylglycerol analogue.
(A, C) Time-dependent changes of intracellular Ca^2+ concentration ([Ca^2+]i) of fluo-4-loaded induced TRPC3 HEK293 cells (A) and TRPC6 HEK293 cells (C). […] Measurements were performed in 96er well plates using FLIPR (Molecular Devices, Sunnyvale, Calif., USA) (B, D) Determination of norgestimates IC50 value on TRPC3 (B) and TRPC6 (D). […]

Another test has as its target T2, TRPC6 (Homo sapiens, UniProt Q9Y210).
T2 construct: expressed in transfected cells; host or cells: HEK293 (inducible expression)
T2 sequence (Q9Y210 1-931): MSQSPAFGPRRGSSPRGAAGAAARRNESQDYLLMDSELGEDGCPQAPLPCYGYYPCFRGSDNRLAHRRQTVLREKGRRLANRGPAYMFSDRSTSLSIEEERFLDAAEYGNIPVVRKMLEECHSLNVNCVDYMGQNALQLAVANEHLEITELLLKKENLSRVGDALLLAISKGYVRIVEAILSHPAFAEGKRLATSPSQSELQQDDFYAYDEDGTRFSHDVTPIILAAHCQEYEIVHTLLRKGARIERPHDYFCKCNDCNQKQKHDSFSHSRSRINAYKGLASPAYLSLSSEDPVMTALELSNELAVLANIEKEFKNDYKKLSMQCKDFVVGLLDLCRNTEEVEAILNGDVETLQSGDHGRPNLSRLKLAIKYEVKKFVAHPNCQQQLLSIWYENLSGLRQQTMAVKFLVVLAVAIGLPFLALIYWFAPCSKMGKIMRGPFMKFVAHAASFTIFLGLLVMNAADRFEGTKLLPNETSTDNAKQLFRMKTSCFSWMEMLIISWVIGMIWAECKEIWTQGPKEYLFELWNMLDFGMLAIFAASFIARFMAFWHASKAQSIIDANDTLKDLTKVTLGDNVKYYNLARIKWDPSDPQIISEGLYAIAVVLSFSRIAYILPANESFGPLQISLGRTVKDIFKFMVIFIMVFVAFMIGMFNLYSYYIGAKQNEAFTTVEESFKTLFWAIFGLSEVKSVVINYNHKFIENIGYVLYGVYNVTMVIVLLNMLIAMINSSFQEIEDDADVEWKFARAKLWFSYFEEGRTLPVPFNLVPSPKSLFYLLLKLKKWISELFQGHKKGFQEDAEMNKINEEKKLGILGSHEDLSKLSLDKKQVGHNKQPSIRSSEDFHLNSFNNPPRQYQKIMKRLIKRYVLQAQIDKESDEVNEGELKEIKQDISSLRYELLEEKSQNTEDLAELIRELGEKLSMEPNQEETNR
Briefly: Whole-cell patch clamp, AlF4- activated TRPC6 HEK293 cells. It counts as cell-based. Conditions: 10 μM. From the text:
Inhibition of TRPC6- and TRPC5-mediated Ca^2+ -influx by norgestimate monitored in fluorometric experiments with cell populations was validated and compared with whole-cell patch clamp recordings of single cells. Channels were indirectly excited with the same stimulus for better comparability of the norgestimate effect. Aluminium tetrafluoride (AIF^4−) applied intracellularly via the patch pipette activates G-proteins by mimicking GTP (Sternweis & Gilman, 1982; Bigay et al., 1987). Subsequently TRPC channels are stimulated and mediate non-specific cationic currents (FIG. 3 A, B) When 10 μM norgestimate were applied to activated TRPC6 channels, 89.9 ±3.1% (n=15) of the current measured at resting membrane potential was blocked. This inhibition was reversible as current amplitude increased after norgestimate wash out (FIG. 3 A).
Effect of 10 μM norgestimate (NG) on whole-cell currents evoked by AlF4^− infusion into induced TRPC6— (A) and TRPC5 HEK 293 (B) cells. Whole cell currents recorded at −70 mV (left panels) and the corresponding current-voltage (I-V) relationships are shown (right panels). […] The curves were obtained during voltage ramps from −100 to +80 mV. (C) Statistical analysis of the norgestimate effect on TRPC5— and TRPC6-mediated currents. 10 μM norgestimate inhibit 25.9±5.7% (n=20) of TRPC5-mediated currents and 89.9±3.1% (n=15) of TRPC6-mediated currents (P<0.001, Wilcoxon test, two-sided).
On the technique in general: The patch-clamp technique gives a direct electrical read-out from membranes.

Consider `C#C[C@]1(OC(C)=O)CC[C@H]2[C@@H]3CCC4=C/C(=N/O)CC[C@@H]4[C@H]3CC[C@@]21CC` [norgestimate, D-17β-acetoxy-B-ethyl-17α ethinyl-gon-4-en-3-one oxime], for which half-maximal inhibition on TRPC3 (FLIPR, n=2) (IC50) required 2800 ± 400 nM. For the same compound, the “TRPC3-mediated Ca2+ influx following application of OAG” value at TRPC3 (cells preincubated with 30 μM norgestimate) is on record as “strongly reduced”. Also, the “reversibility of TRPC6 current inhibition after wash out” value at TRPC6 is “reversible”. At TRPC6 (current at resting membrane potential (-70 mV), n=15), this compound gave a TRPC6 current blocked of 89.9 ±3.1%.
